Source: ChEMBL document CHEMBL1158020, “Antitumor agents. 190. Absolute stereochemistry of the cytotoxic germacranolides, tomenphantins A and B, from Elephantopus tomentosus” (1999)
In brackets after ≈: the same amount, converted by molar mass.

System: KB
Experiment: Cytotoxicity against human KB cells
Assay type: functional
Conditions: read-out: ED50 (the source's name)

Compound | EC50
C=C(C)C(=O)O[C@H]1C/C(CO)=C/CC[C@@]2(C)O[C@H]2[C@H]2OC(=O)C(=C)[C@@H]21 [TOMENPHANTIN A] | 3 µg/mL (≈ 8.61 µM)
C=C(C)C(=O)O[C@H]1C/C(C=O)=C/CC[C@@]2(C)O[C@H]2[C@H]2OC(=O)C(=C)[C@@H]21 [TOMENPHANTIN B] | 2.7 µg/mL (≈ 7.79 µM)
